Measured values from PubChem BioAssay (NCI).
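Step 1: Grow cells in 96-well plates. Step 2: Expose to compound for 48 hours at 5 concentrations. Step 3: Interpolate endpoints linearly; if unreached, use highest concentration. TGI marks complete inhibition of growth.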

Experiments:
Assay in all cases: NCI tumour cell line growth inhibition, 48 h
SF-295 CNS = system: SF-295 CNS
HCT-15 colon = system: HCT-15 colon
HCC-2998 colon = system: HCC-2998 colon
HOP-18 NSCLC = system: HOP-18 NSCLC
KM20L2 colon = system: KM20L2 colon
COLO 205 colon = system: COLO 205 colon
786-0 renal = system: 786-0 renal
M19-MEL melanoma = system: M19-MEL melanoma
M14 melanoma = system: M14 melanoma
HOP-62 NSCLC = system: HOP-62 NSCLC
UO-31 renal = system: UO-31 renal
ACHN renal = system: ACHN renal
NCI-H522 lung = system: NCI-H522 lung
HCT-116 colon = system: HCT-116 colon
DMS 114 small cell lung = system: DMS 114 small cell lung
SN12C renal = system: SN12C renal
UACC-257 melanoma = system: UACC-257 melanoma
EKVX NSCLC = system: EKVX NSCLC
MOLT-4 leukemia = system: MOLT-4 leukemia
TK-10 renal = system: TK-10 renal
CCRF-CEM leukemia = system: CCRF-CEM leukemia
RPMI-8226 leukemia = system: RPMI-8226 leukemia
DLD-1 colon = system: DLD-1 colon
U251 CNS = system: U251 CNS
SNB-19 CNS = system: SNB-19 CNS
UACC-62 melanoma = system: UACC-62 melanoma
LXFL 529 NSCLC = system: LXFL 529 NSCLC
NCI-H23 lung = system: NCI-H23 lung
OVCAR-4 ovarian = system: OVCAR-4 ovarian
SNB-75 CNS = system: SNB-75 CNS
SK-OV-3 ovarian = system: SK-OV-3 ovarian
HT29 colon = system: HT29 colon
SR leukemia = system: SR leukemia
SK-MEL-2 melanoma = system: SK-MEL-2 melanoma
K-562 leukemia = system: K-562 leukemia
NCI-H460 lung = system: NCI-H460 lung
SW-620 colon = system: SW-620 colon
KM12 colon = system: KM12 colon
OVCAR-5 ovarian = system: OVCAR-5 ovarian
MALME-3M melanoma = system: MALME-3M melanoma
CAKI-1 renal = system: CAKI-1 renal
NCI-H226 lung = system: NCI-H226 lung
OVCAR-8 ovarian = system: OVCAR-8 ovarian
SK-MEL-5 melanoma = system: SK-MEL-5 melanoma
DMS 273 small cell lung = system: DMS 273 small cell lung
SNB-78 CNS = system: SNB-78 CNS
RXF 393 renal = system: RXF 393 renal
IGROV1 ovarian = system: IGROV1 ovarian
SF-539 CNS = system: SF-539 CNS
SK-MEL-28 melanoma = system: SK-MEL-28 melanoma
RXF-631 renal = system: RXF-631 renal
A498 renal = system: A498 renal
OVCAR-3 ovarian = system: OVCAR-3 ovarian
A549 NSCLC = system: A549 NSCLC
SF-268 CNS = system: SF-268 CNS
P388 leukemia = system: P388 leukemia
LOX IMVI melanoma = system: LOX IMVI melanoma
HL-60(TB) leukemia = system: HL-60(TB) leukemia
P388/ADR leukemia = system: P388/ADR leukemia
NCI/ADR-RES ovarian = system: NCI/ADR-RES ovarian
XF 498 CNS = system: XF 498 CNS
SN12K1 renal = system: SN12K1 renal
HOP-92 NSCLC = system: HOP-92 NSCLC
MCF7 breast = system: MCF7 breast

Measured: TGI

O=C(O)CCC(N=Cc1nc(-c2ccccc2)oc1O)C(=O)O (configuration not stated)
not listed: P388 leukemia | LOX IMVI melanoma | HL-60(TB) leukemia | P388/ADR leukemia | NCI/ADR-RES ovarian | XF 498 CNS | SN12K1 renal | HOP-92 NSCLC | MCF7 breast
> 100 µM: all other assays above

COC(=O)c1ccc(N=NN(C)COc2ccc(Br)cc2)cc1
> 79.8 µM: RPMI-8226 leukemia
59.7 µM: HL-60(TB) leukemia
87.7 µM: HCC-2998 colon
> 92.6 µM: MOLT-4 leukemia
not listed: 786-0 renal | M14 melanoma | ACHN renal | TK-10 renal | LXFL 529 NSCLC | SR leukemia | RXF-631 renal
> 100 µM: all other assays above
